Earlier results as cited in patent US20150030707A1, “Rhus Coriaria L. Extract For Use In The Treatment Of Hyperhidrosis” (BIOMEDICAL RESEARCH S.R.L., priority 2012, published 2015).

Details: in vivo

botulinum toxin
duration of efficacy of the injections: 5-6 months
